Experiment: Dissolution of AMP alone in organic solvent
Assay type: physicochemical
Source text: (§1) […] […] 1 eq. of a phosphorylated nucleotide such as adefovir can be substituted for each eq. of AMP.
as §1

Structure (SMILES): Nc1ncnc2c1ncn2[C@@H]1O[C@H](COP(=O)(O)O)[C@@H](O)[C@H]1O [AMP, Adenosine monophosphate]
- Dissolution of AMP alone in N-methyl pyrrolidone (0.5 g in 10 mL of N-methyl pyrrolidone, absence of tyrosine butyrate): will not dissolve
- Dissolution of AMP alone in glycerol formal (1 g in 10 mL of glycerol formal, absence of isoleucine butyrate): will not dissolve
